Patent publication US9403823B2, “Protein kinase inhibitors” (ORIBASE PHARMA, priority 2012, dated 2016)
Where two headings read alike, the source gives them in different places.

Columns and labels:
EGFR (ErbB1) = biological target: T1, EGFR (ErbB1) (Homo sapiens, UniProt P00533); experiment: In vitro kinase assay (Z'-LYTE), EGFR (ErbB1); type: biochemical; conditions: read-out: % of inhibition of the kinase compared to the control
T1 construct: purchased Invitrogen
Experimental: (§1) 1) In Vitro Kinase Assays (Table 10 to Table 21)
(§2) The inhibitory activity of the compounds on several kinases including BRAF, EGFR (ErbB1), EGFR (ErbB1) T790M L858R, FGFR2, KDR (VEGFR2), PDGFRA (PDGFR alpha), SRC and other was evaluated by Invitrogen using the Z′-LYTE® technology. Briefly, the Z′-LYTE® biochemical assay employs a fluorescence-based, coupled-enzyme format and is based on the differential sensitivity of phosphorylated and non-phosphorylated peptides to proteolytic cleavage. The peptide substrate is labeled with two fluorophores—one at each end—that make up a FRET pair. A ratiometric method, which calculates the ratio (the Emission Ratio) of donor emission to acceptor emission after excitation of the donor fluorophore at 400 nm, is used to quantitate reaction progress.
(§3) The compounds are screened in 1% DMSO (final) in the well. For 10 point titrations, 3-fold serial dilutions are conducted from the starting concentration. All Peptide/Kinase Mixtures are diluted to a 2× working concentration in the appropriate Kinase Buffer. All ATP Solutions are diluted to a 4× working concentration in Kinase Buffer (50 mM HEPES pH 7.5, 0.01% BRIJ-35, 10 mM MgCl2, 1 mM EGTA). ATP Km apparent is previously determined using a Z′-LYTE® assay.
(§4) Each compound was incubated at a concentration of 100 nM (excepted to test the activity against ABL and ABL T315I for which the compounds were incubated at a concentration of 10 μM) and the tables 10 to 21 summarize the results obtained showing the inhibitory power of a compound.

HUVEC = experiment: In vitro cell proliferation assay (MTT), HUVEC; type: cell-based; conditions: Homo sapiens, read-out: EC50, anti-proliferative activity
Experimental: (§5) 2) In Vitro Cell Proliferation Assays (Table 22 to Table 35)
(§6) Cancer cell lines (5×10^3 cells per well) or HUVEC (1×10^4 cells per well) or HRMEC (1×10^4 cells per well) were distributed in 96-well plates and incubating in duplicate with escalating concentrations (10 nM to 3 μM) of compounds for 72 hr. Cell proliferation was measured using MTT (3[4,5-dimethylthiazol-2-yl]-2,5-diphenyltetrazolium bromide).

BRAF = biological target: T2, BRAF (Homo sapiens, UniProt P15056); experiment: In vitro kinase assay (Z'-LYTE), BRAF; type: biochemical; conditions: read-out: % of inhibition of the kinase compared to the control
T2 construct: purchased Invitrogen
T2 sequence (P15056 whole entry): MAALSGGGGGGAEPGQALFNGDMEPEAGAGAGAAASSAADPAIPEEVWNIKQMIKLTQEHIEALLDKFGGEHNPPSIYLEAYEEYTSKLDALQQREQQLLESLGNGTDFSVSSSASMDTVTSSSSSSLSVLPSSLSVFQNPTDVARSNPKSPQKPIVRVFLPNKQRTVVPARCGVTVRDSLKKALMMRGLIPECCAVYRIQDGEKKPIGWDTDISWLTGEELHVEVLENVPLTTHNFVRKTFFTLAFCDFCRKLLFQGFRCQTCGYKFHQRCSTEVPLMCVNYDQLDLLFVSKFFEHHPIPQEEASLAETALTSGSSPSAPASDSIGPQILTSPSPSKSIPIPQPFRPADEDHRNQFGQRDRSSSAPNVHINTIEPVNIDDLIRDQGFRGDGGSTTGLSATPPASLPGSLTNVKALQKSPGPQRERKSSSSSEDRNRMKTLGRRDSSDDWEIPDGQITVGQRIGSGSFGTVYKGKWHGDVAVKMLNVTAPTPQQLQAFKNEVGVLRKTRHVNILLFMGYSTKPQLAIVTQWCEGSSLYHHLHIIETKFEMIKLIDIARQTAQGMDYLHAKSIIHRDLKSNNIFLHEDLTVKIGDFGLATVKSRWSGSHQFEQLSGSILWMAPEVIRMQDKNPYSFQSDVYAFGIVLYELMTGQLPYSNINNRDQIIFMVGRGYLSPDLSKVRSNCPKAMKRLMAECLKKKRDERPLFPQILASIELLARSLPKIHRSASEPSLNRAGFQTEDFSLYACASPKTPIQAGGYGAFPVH
Experimental: as §1, §2, §3, §4

FGFR2 = biological target: T3, FGFR2 (Homo sapiens, UniProt P21802); experiment: In vitro kinase assay (Z'-LYTE), FGFR2; type: biochemical; conditions: read-out: % of inhibition of the kinase compared to the control
T3 construct: purchased Invitrogen
T3 sequence (P21802 22-821): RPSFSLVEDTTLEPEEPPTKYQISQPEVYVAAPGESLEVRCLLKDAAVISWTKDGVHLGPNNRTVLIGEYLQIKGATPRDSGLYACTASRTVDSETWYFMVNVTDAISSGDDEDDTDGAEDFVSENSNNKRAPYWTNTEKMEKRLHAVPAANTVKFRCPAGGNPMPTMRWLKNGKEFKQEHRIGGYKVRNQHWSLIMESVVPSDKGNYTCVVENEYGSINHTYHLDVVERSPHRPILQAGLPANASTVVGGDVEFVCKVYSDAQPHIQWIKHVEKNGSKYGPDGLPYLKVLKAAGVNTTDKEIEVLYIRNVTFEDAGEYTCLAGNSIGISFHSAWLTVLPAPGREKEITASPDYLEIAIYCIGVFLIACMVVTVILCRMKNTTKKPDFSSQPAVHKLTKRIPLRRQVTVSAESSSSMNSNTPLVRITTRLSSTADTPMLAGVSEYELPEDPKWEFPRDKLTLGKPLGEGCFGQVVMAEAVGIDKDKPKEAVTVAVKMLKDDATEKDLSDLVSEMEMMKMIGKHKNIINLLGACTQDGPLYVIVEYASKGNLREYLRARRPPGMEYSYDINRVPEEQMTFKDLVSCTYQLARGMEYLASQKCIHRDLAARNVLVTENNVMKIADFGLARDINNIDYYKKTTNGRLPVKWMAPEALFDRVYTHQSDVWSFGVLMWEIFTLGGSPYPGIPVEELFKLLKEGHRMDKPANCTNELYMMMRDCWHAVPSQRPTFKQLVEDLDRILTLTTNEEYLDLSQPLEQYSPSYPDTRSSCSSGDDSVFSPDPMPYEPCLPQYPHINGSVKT
Experimental: as §1, §2, §3, §4

KDR (VEGFR2) = biological target: T4, KDR (VEGFR2) (Homo sapiens, UniProt P35968); experiment: In vitro kinase assay (Z'-LYTE), KDR (VEGFR2); type: biochemical; conditions: read-out: % of inhibition of the kinase compared to the control
T4 construct: purchased Invitrogen
T4 sequence (P35968 20-1356): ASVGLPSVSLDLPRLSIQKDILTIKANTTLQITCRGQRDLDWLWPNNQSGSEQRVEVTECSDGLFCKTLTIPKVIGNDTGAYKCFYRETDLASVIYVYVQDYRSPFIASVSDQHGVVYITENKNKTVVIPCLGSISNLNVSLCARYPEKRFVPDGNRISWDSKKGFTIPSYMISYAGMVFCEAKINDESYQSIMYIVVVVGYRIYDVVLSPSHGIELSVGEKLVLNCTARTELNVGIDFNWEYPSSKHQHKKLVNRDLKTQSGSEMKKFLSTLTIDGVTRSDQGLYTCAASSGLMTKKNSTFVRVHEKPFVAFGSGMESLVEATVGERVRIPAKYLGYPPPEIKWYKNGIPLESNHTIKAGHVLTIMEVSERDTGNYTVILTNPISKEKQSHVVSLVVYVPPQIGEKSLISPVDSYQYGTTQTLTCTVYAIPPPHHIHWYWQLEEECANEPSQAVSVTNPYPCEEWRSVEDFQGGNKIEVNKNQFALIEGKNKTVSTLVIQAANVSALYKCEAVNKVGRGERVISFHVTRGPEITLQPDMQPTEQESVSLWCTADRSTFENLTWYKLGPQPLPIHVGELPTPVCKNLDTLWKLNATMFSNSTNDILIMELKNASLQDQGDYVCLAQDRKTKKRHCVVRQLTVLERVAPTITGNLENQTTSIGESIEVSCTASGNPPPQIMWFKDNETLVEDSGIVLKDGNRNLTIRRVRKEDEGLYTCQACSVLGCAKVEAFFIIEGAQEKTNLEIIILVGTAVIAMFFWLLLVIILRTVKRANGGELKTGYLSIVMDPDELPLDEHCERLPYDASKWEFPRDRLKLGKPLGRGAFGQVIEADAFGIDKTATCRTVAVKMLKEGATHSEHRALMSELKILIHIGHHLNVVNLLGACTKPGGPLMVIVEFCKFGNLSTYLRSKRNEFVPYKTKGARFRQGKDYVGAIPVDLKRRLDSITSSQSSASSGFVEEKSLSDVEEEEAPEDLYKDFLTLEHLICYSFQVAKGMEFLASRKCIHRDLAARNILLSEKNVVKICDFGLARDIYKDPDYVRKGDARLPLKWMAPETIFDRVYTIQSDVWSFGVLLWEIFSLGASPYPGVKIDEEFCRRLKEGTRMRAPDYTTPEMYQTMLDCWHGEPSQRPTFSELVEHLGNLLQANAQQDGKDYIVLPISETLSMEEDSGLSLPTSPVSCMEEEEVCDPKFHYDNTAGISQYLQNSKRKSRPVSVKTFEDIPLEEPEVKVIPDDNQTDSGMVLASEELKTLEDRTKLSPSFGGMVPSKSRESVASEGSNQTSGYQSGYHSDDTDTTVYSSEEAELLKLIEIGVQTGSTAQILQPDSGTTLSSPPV
Experimental: as §1, §2, §3, §4

HepG2 cell line = experiment: In vitro cell proliferation assay (MTT), HepG2; type: cell-based; conditions: Homo sapiens, read-out: EC50, anti-proliferative activity
Experimental: as §5, §6

PDGFRA (PDGFR alpha) = biological target: T5, PDGFRA (PDGFR alpha) (Homo sapiens, UniProt P16234); experiment: In vitro kinase assay (Z'-LYTE), PDGFRA; type: biochemical; conditions: read-out: % of inhibition of the kinase compared to the control
T5 construct: purchased Invitrogen
Experimental: as §1, §2, §3, §4

SRC = biological target: T6, SRC (Homo sapiens, UniProt P12931); experiment: In vitro kinase assay (Z'-LYTE), SRC; type: biochemical; conditions: read-out: % of inhibition of the kinase compared to the control
T6 construct: purchased Invitrogen
T6 sequence (P12931 whole entry): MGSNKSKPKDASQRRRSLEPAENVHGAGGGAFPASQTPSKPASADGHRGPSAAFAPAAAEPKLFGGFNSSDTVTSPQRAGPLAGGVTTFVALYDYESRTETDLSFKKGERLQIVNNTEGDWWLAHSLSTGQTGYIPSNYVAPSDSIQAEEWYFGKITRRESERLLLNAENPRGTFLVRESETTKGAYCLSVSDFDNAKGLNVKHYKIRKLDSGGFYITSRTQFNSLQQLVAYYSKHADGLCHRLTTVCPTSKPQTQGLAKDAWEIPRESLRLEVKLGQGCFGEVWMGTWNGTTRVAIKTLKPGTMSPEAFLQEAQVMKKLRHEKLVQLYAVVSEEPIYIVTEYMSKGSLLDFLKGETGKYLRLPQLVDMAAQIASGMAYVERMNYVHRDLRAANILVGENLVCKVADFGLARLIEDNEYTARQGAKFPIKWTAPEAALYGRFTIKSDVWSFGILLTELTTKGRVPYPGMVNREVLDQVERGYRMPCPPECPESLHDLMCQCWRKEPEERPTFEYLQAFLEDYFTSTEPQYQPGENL
Experimental: as §1, §2, §3, §4

T1 sequence (P00533 25-1210): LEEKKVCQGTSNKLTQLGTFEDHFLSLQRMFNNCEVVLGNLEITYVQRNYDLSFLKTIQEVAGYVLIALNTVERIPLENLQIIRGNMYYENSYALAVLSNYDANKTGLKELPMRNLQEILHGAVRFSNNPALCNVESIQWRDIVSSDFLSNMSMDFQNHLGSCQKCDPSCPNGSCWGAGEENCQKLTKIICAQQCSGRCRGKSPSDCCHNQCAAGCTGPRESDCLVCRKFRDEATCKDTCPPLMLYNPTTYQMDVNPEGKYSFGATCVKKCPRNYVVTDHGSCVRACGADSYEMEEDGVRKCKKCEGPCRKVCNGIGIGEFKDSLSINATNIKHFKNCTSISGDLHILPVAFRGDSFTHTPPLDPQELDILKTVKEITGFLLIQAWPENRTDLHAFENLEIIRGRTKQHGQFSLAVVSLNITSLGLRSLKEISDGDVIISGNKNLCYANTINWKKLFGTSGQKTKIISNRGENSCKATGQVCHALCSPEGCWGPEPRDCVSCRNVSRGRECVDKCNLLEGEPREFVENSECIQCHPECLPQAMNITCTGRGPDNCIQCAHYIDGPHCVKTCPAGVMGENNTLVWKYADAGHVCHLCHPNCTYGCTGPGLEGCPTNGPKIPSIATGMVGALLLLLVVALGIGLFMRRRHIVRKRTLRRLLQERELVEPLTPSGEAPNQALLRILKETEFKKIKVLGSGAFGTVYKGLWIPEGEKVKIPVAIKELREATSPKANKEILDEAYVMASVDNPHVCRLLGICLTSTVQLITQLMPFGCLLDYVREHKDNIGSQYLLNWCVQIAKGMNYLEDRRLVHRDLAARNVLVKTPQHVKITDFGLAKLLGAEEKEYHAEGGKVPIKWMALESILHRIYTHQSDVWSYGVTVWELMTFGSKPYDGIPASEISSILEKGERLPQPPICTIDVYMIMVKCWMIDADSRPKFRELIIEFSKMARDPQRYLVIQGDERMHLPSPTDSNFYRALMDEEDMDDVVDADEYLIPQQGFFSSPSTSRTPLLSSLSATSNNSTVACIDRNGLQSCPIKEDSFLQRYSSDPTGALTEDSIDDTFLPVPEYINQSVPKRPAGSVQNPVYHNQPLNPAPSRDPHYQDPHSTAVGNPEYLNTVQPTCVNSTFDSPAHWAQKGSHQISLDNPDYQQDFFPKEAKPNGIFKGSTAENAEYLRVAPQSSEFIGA

Row | SMILES | inhibition at 0.1 µM (EGFR (ErbB1)) | inhibition at 0.1 µM (BRAF) | inhibition at 0.1 µM (FGFR2) | inhibition at 0.1 µM (KDR (VEGFR2)) | EC50 (HepG2 cell line; HepG2, 72 hr, MTT) | EC50 (HepG2 cell line; HepG2, 72 h) | inhibition at 0.1 µM (PDGFRA (PDGFR alpha)) | inhibition at 0.1 µM (SRC) | EC50 (HUVEC; 72 hr, MTT) | EC50 (HUVEC; 72 h)
1 | CC(=O)c1cc2cc(NCc3cccc(C(=O)Nc4cccnc4)c3)cnc2[nH]1 [OR0917, 3-[(2-Acetyl-1H-pyrrolo[2,3-b]pyridin-5-ylamino)-methyl]-N-pyridin-3-yl-benzamide] | ≥ 50% | < 50% | ≥ 50% | ≥ 50% | ≥ 1000 nM | – | – | – | ≥ 1000 nM | –
2 | CC(=O)c1cc2cc(NCc3cc(NC(=O)Nc4cccnc4)ccc3C)cnc2[nH]1 [OR0897, 1-{3-[(2-Acetyl-1H-pyrrolo[2,3-b]pyridin-5-ylamino)-methyl]-4-methyl-phenyl}-3-pyridin-3-yl-urea] | < 50% | ≥ 50% | < 50% | < 50% | – | ≤ 100 nM | ≥ 50% | < 50% | ≥ 1000 nM | –
3 | Cc1ccc(NC(=O)c2ccc(CN3CCN(C)CC3)c(C(F)(F)F)c2)cc1C(=O)Nc1cnc2[nH]c(C(=O)O)cc2c1 [OR0810, 5-{2-Methyl-5-[4-(4-methyl-piperazin-1-ylmethyl)-3-trifluoromethyl-benzoylamino]-benzoylamino}-1H-pyrrolo[2,3-b]pyridine-2-carboxylic acid] | ≥ 50% | < 50% | ≥ 50% | ≥ 50% | – | – | – | – | – | –
4 | CC(=O)c1cc2cc(NCc3cc(NC(=O)c4ccc(CN5CCC(N(C)C)C5)c(F)c4)ccc3C)cnc2[nH]1 (centres unmarked) [OR0973, N-{3-[(2-Acetyl-1H-pyrrolo[2,3-b]pyridin-5-ylamino)-methyl]-4-methyl-phenyl}-4-(3-dimethylamino-pyrrolidin-1-ylmethyl)-3-fluoro-benzamide] | ≥ 50% | ≥ 50% | < 50% | ≥ 50% | – | 100 to 1000 nM | – | – | ≥ 1000 nM | –
5 | Cc1ccc(NC(=O)c2ccc(CN3CC[C@H](N(C)C)C3)c(C(F)(F)F)c2)cc1CNc1cnc2[nH]c(C(=O)O)cc2c1 [OR0814, 5-{5-[4-((S)-3-Dimethylamino-pyrrolidin-1-ylmethyl)-3-trifluoromethyl-benzoylamino]-2-methyl-benzylamino}-1H-pyrrolo[2,3-b]pyridine-2-carboxylic acid] | ≥ 50% | < 50% | ≥ 50% | ≥ 50% | – | – | – | – | – | –
6 | CC(=O)c1cc2cc(NC(=O)c3cccc(CNC(=O)c4ccc(CN5CCN(C)CC5)c(C(F)(F)F)c4)c3)cnc2[nH]1 [OR0984, N-[3-(2-Acetyl-1H-pyrrolo[2,3-b]pyridin-5-ylcarbamoyl)-benzyl]-4-(4-methyl-piperazin-1-ylmethyl)-3-trifluoromethyl-benzamide] | < 50% | < 50% | < 50% | < 50% | ≥ 1000 nM | – | < 50% | < 50% | – | –
7 | CC(=O)c1cc2cc(NCc3cccc(NC(=O)c4ccc(CN5CC[C@H](N(C)C)C5)c(C(F)(F)F)c4)c3)cnc2[nH]1 [OR0927, N-{3-[(2-Acetyl-1H-pyrrolo[2,3-b]pyridin-5-ylamino)-methyl]-phenyl}-4-((S)-3-dimethylamino-pyrrolidin-1-ylmethyl)-3-trifluoromethyl-benzamide] | ≥ 50% | < 50% | ≥ 50% | ≥ 50% | – | 100 to 1000 nM | – | – | – | 100 to 1000 nM

More lines, main results first:

Row | inhibition at 0.1 µM (EGFR (ErbB1)) | inhibition at 0.1 µM (BRAF) | inhibition at 0.1 µM (FGFR2) | inhibition at 0.1 µM (KDR (VEGFR2)) | EC50 (HepG2 cell line; HepG2, 72 hr, MTT) | EC50 (HepG2 cell line; HepG2, 72 h) | inhibition at 0.1 µM (PDGFRA (PDGFR alpha)) | inhibition at 0.1 µM (SRC) | SMILES | EC50 (HUVEC; 72 hr, MTT) | EC50 (HUVEC; 72 h)
8 | < 50% | ≥ 50% | < 50% | ≥ 50% | – | – | – | – | CC(=O)c1cc2cc(NCc3cc(NC(=O)c4ccnc(C(F)(F)F)c4)ccc3C)cnc2[nH]1 [OR0887, N-{3-[(2-Acetyl-1H-pyrrolo[2,3-b]pyridin-5-ylamino)-methyl]-4-methyl-phenyl}-2-trifluoromethyl-isonicotinamide] | – | 100 to 1000 nM
9 | < 50% | < 50% | < 50% | < 50% | – | 100 to 1000 nM | < 50% | < 50% | CC(=O)c1cc2cc(NCc3cc(NC(=O)c4ccc(Cl)c(C(F)(F)F)c4)ccc3C)cnc2[nH]1 [OR0891, N-{3-[(2-Acetyl-1H-pyrrolo[2,3-b]pyridin-5-ylamino)-methyl]-4-methyl-phenyl}-4-chloro-3-trifluoromethyl-benzamide] | – | 100 to 1000 nM
10 | ≥ 50% | < 50% | < 50% | < 50% | – | 100 to 1000 nM | ≥ 50% | ≥ 50% | CC(=O)c1cc2cc(NCc3cc(NC(=O)c4ccc(C)c(C(F)(F)F)c4)ccc3C)cnc2[nH]1 [OR0890, N-{3-[(2-Acetyl-1H-pyrrolo[2,3-b]pyridin-5-ylamino)-methyl]-4-methyl-phenyl}-4-methyl-3-trifluoromethyl-benzamide] | – | 100 to 1000 nM
11 | – | < 50% | < 50% | < 50% | ≥ 1000 nM | – | ≥ 50% | < 50% | CC(=O)c1cc2cc(NCc3cc(NC(=O)c4ccc(C(F)(F)F)nc4)ccc3C)cnc2[nH]1 [OR0886, N-{3-[(2-Acetyl-1H-pyrrolo[2,3-b]pyridin-5-ylamino)-methyl]-4-methyl-phenyl}-6-trifluoromethyl-nicotinamide] | – | 100 to 1000 nM
12 | < 50% | ≥ 50% | ≥ 50% | ≥ 50% | – | – | – | – | CC(=O)c1cc2cc(NCc3ccc(F)c(NC(=O)c4cncc(C(F)(F)F)c4)c3)cnc2[nH]1 [OR0894, N-{5-[(2-Acetyl-1H-pyrrolo[2,3-b]pyridin-5-ylamino)-methyl]-2-fluoro-phenyl}-5-trifluoromethyl-nicotinamide] | ≥ 1000 nM | –
13 | < 50% | ≥ 50% | < 50% | ≥ 50% | – | 100 to 1000 nM | – | – | CC(=O)c1cc2cc(NCc3cc(NC(=O)c4cncc(C(F)(F)F)c4)ccc3F)cnc2[nH]1 [OR0970, N-{5-[(2-Acetyl-1H-pyrrolo[2,3-b]pyridin-5-ylamino)-methyl]-4-fluoro-phenyl}-5-trifluoromethyl-nicotinamide] | ≥ 1000 nM | –
14 | ≥ 50% | ≥ 50% | < 50% | ≥ 50% | – | ≤ 100 nM | – | – | CC(=O)c1cc2cc(NCc3cc(NC(=O)c4cccc(C(F)(F)F)c4)ccc3C)cnc2[nH]1 [OR0893, N-{3-[(2-Acetyl-1H-pyrrolo[2,3-b]pyridin-5-ylamino)-methyl]-4-methyl-phenyl}-3-trifluoromethyl-benzamide] | – | 100 to 1000 nM
15 | ≥ 50% | < 50% | ≥ 50% | ≥ 50% | – | 100 to 1000 nM | – | – | CC(=O)c1cc2cc(NCc3cc(NC(=O)c4ccc(CN5CC[C@H](N(C)C)C5)c(C(F)(F)F)c4)ccc3F)cnc2[nH]1 [OR0971, N-{3-[(2-Acetyl-1H-pyrrolo[2,3-b]pyridin-5-ylamino)-methyl]-4-fluoro-phenyl}-4-((S)-3-dimethylamino-pyrrolidin-1-ylmethyl)-3-trifluoromethyl-benzamide] | ≥ 1000 nM | –
